IC50 data for 32 molecules are collected here from patent US20250340560A1, “SUBSTITUTED PYRAZOLO[1,5-a]PYRIMIDINES AS BRUTON'S TYROSINE KINASE MODULATORS” (BEIGENE SWITZERLAND GMBH, priority 2013, published 2025).

The test addresses Recombinant Btk (Homo sapiens (Human), UniProt Q06187). As to the kind of experiment: BTK kinase assay (TR-FRET). The settings on record: read-out: IC50 (nM) Btk; 1 hour pre-incubation, ATP at Km.

Where a name gives a salt, the structure may show the parent alone. Where only a bound is given, the exact number is not on record here.

Recombinant Btk, sequence (Q06187 whole entry): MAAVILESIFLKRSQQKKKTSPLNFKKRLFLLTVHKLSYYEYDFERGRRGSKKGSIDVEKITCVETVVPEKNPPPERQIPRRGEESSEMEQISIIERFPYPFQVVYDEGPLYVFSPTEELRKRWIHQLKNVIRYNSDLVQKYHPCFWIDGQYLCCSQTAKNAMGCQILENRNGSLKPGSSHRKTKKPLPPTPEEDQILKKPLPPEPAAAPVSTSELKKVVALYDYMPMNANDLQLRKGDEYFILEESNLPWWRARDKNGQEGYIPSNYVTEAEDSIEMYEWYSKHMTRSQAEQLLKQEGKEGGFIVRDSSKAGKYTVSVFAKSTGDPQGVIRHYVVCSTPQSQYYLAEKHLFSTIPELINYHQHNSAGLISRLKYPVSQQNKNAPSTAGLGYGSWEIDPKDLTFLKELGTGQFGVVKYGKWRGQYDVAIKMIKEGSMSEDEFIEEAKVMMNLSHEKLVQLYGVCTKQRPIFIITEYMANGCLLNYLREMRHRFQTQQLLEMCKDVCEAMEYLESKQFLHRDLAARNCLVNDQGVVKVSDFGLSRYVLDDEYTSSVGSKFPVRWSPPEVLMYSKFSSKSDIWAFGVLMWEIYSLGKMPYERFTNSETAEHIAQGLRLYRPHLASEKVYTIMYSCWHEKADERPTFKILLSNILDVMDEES

For `C=CC(=O)Nc1ccccc1C1CCNc2c(C(N)=O)c(-c3ccc(F)c(Br)c3)nn21` (centres unmarked) [Compound 152, 7-(2-Acrylamidophenyl)-2-(3-bromo-4-fluorophenyl)-4,5,6,7-tetrahydropyrazolo[1,5-a]pyrimidine-3-carboxamide], the IC50 worked out at 1.2 nM.
To `CN(C)CCC(=O)N1CCc2[nH]c3c(C(N)=O)c(-c4ccc(Oc5ccccc5)cc4)nn3c2C1` [Compound 57, 7-(3-(Dimethylamino)propanoyl)-2-(4-phenoxyphenyl)-5,6,7,8-tetrahydro-4H-pyrazolo[5′,1′:2,3]imidazo[4,5-c]pyridine-3-carboxamide trifluoroacetate] belongs 37 nM; to `C=CC(=O)NCC1CCNc2c(C(N)=O)c(-c3ccc(OCc4ccccc4)c(OC)c3)nn21` (centres unmarked) [Compound 142, 7-(acrylamidomethyl)-2-(4-(benzyloxy)-3-methoxyphenyl)-4,5,6,7-tetrahydropyrazolo[1,5-a]pyrimidine-3-carboxamide], 54 nM.
The same measure for `C=CC(=O)N1CC(C2CCNc3c(C(N)=O)c(-c4ccc(Oc5cccc(Cl)c5)cc4)nn32)C1` (centres unmarked) [Compound 107, 7-(1-acryloylazetidin-3-yl)-2-(4-(3-chlorophenoxy)phenyl)-4,5,6,7-tetrahydropyrazolo[1,5-a]pyrimidine-3-carboxamide]: 0.48 nM; for `NC(=O)c1c(-c2ccc(Oc3ccccc3)cc2)nn2c3c([nH]c12)CCNC3` [Compound 51, 2-(4-Phenoxyphenyl)-5,6,7,8-tetrahydro-4H-pyrazolo[5′,1′:2,3]imidazo[4,5-c]pyridine-3-carboxamide trifluoroacetate]: 310 nM; for `N#CCC(=O)N1CCC([C@@H]2CCNc3c(C(N)=O)c(-c4ccc(Oc5ccccc5)cc4)nn32)CC1` [Compound 180, (S)-7-(1-(2-Cyanoacetyl)piperidin-4-yl)-2-(4-phenoxyphenyl)-4,5,6,7-tetrahydropyrazolo[1,5-a]pyrimidine-3-carboxamide]: 87 nM.
For the molecule `NC(=O)c1c(-c2ccc(Oc3ccccc3)cc2)nn2c1NCCc1cc([N+](=O)[O-])ccc1-2` [Compound 70, 8-Nitro-2-(4-phenoxyphenyl)-5,6-dihydro-4H-benzo[f]pyrazolo[1,5-a][1,3]diazepine-3-carboxamide], the IC50 came out at 19 nM.
Regarding `C=CC(=O)N1CC(C2CCNc3c(C(N)=O)c(-c4ccc(Cl)cc4)nn32)C1` (centres unmarked) [Compound 145, 7-(1-acryloylazetidin-3-yl)-2-(4-chlorophenyl)-4,5,6,7-tetrahydropyrazolo[1,5-a]pyrimidine-3-carboxamide], the IC50 is 72 nM.
To `C=CC(=O)N1CC(C2CCNc3c(C(N)=O)c(-c4ccc(Oc5ccccc5C#N)cc4)nn32)C1` (centres unmarked) [Compound 135, 7-(1-acryloylazetidin-3-yl)-2-(4-(2-cyanophenoxy)phenyl)-4,5,6,7-tetrahydropyrazolo[1,5-a]pyrimidine-3-carboxamide] belongs 0.38 nM; to `NC(=O)c1c(-c2ccc(Oc3ccc(F)cc3)cc2)nn2c1NCCC2c1ccccc1N` (centres unmarked) [Compound 11, 7-(2-Aminophenyl)-2-(4-(4-fluorophenoxy)phenyl)-4,5,6,7-tetrahydro pyrazolo[1,5-a]pyrimidine-3-carboxamide], 4500 nM.
To `NC(=O)c1c(-c2ccc(Oc3ccccc3)cc2)nn2c1NCc1ccc(N)cc1-2` [Compound 68, 8-Amino-2-(4-phenoxyphenyl)-4,5-dihydropyrazolo[1,5-a]quinazoline-3-carboxamide] belongs 190 nM; to `CC#CC(=O)N1CCC(C2CCNc3c(C(N)=O)c(-c4ccc(Oc5ccc(F)cc5F)cc4)nn32)CC1` (centres unmarked) [Compound 179, 7-(1-(But-2-ynoyl)piperidin-4-yl)-2-(4-(2,4-difluorophenoxy)phenyl)-4,5,6,7-tetrahydropyrazolo[1,5-a]pyrimidine-3-carboxamide], 48 nM.
To `C=CC(=O)Nc1ccccc1C1CCNc2c(C(N)=O)c(-c3ccc(OC)c(OC)c3)nn21` (centres unmarked) [Compound 168, 7-(2-Acrylamidophenyl)-2-(3,4-dimethoxyphenyl)-4,5,6,7-tetrahydropyrazolo[1,5-a]pyrimidine-3-carboxamide] belongs 3.2 nM; to `C=CC(=O)Nc1ccccc1C1CCNc2c(C(N)=O)c(-c3ccc(Cl)c(OC)c3)nn21` (centres unmarked) [Compound 160, 7-(2-Acrylamidophenyl)-2-(4-chloro-3-methoxyphenyl)-4,5,6,7-tetrahydropyrazolo[1,5-a]pyrimidine-3-carboxamide], 0.49 nM; to `NC(=O)c1c(-c2ccc(Oc3ccccc3)cc2)nn2c1NCCC21CCN(Cc2ccccc2)CC1` [Compound 41, 1-Benzyl-2′-(4-phenoxyphenyl)-5′,6′-dihydro-4′H-spiro[piperidine-4,7′-pyrazolo[1,5-a]pyrimidine]-3′-carboxamide], 180 nM.
With `C=CC(=O)NCC1CCNc2c(C(N)=O)c(-c3ccc(OCc4ccccc4)cc3)nn21` (centres unmarked) [Compound 111, 7-(acrylamidomethyl)-2-(4-(benzyloxy)phenyl)-4,5,6,7-tetrahydropyrazolo[1,5-a]pyrimidine-3-carboxamide], the IC50 amounted to 24 nM.
As for `N#Cc1c(-c2ccc(Oc3ccccc3)cc2)nn2c(-c3cccc(N)c3)ccnc12` [Compound 1, 7-(3-Aminophenyl)-2-(4-phenoxyphenyl)pyrazolo[1,5-a]pyrimidine-3-carbonitrile], the IC50 is over 10000 nM.
The same measure for `CN(C)C/C=C/C(=O)Nc1ccccc1C1CCNc2c(C(N)=O)c(-c3ccc(Oc4ccccc4)cc3)nn21` (centres unmarked) [Compound 92, (E)-7-(2-(4-(dimethylamino)but-2-enamido)phenyl)-2-(4-phenoxyphenyl)-4,5,6,7-tetrahydropyrazolo[1,5-a]pyrimidine-3-carboxamide]: 1.1 nM; for `C=CC(=O)N1CCc2[nH]c3c(C(N)=O)c(-c4ccc(OCc5ccccc5)cc4)nn3c2C1` [Compound 126, 7-Acryloyl-2-(4-(benzyloxy)phenyl)-5,6,7,8-tetrahydro-4H-pyrazolo[5′,1′:2,3]imidazo[4,5-c]pyridine-3-carboxamide]: 20 nM.
To `C=CC(=O)Nc1ccccc1C1CCNc2c(C(N)=O)c(-c3ccc(Oc4ccc(F)cc4)cc3)nn21` (centres unmarked) [Compound 12, 7-(2-Acrylamidophenyl)-2-(4-(4-fluorophenoxy)phenyl)-4,5,6,7-tetrahydropyrazolo[1,5-a]pyrimidine-3-carboxamide] belongs 1.7 nM; to `CN(C)CCOc1cccc(C2CNc3c(C(N)=O)c(-c4ccc(Oc5ccccc5)cc4)nn3C2)c1` (centres unmarked) [Compound 91, 6-(3-(2-(Dimethylamino)ethoxy)phenyl)-2-(4-phenoxyphenyl)-4,5,6,7-tetrahydropyrazolo[1,5-a]pyrimidine-3-carboxamide], 1900 nM; to `C=CC(=O)N1CC(C2CCNc3c(C(N)=O)c(-c4ccc(OCc5ccccc5)cc4)nn32)C1` (centres unmarked) [Compound 104, 7-(1-acryloylazetidin-3-yl)-2-(4-(benzyloxy)phenyl)-4,5,6,7-tetrahydropyrazolo[1,5-a]pyrimidine-3-carboxamide], 2.6 nM.
With `C=CC(=O)Nc1ccccc1C1CCNc2c(C(N)=O)c(-c3ccccc3)nn21` (centres unmarked) [Compound 150, 7-(2-Acrylamidophenyl)-2-phenyl-4,5,6,7-tetrahydropyrazolo[1,5-a]pyrimidine-3-carboxamide], the IC50 came to 4.7 nM.
In the case of `NC(=O)c1c(-c2ccc(Oc3ccccc3)cc2)nn2c1[nH]c(=O)c1cc([N+](=O)[O-])ccc12` [Compound 76, 7-Nitro-5-oxo-2-(4-phenoxyphenyl)-4,5-dihydropyrazolo[1,5-a]quinazoline-3-carboxamide], the IC50 was found to be 5500 nM.
The same measure for `NC(=O)c1c(-c2ccc(Oc3ccccc3)cc2)nn2c3c([nH]c12)CCN(C(=O)CCCl)C3` [Compound 53, 7-(3-Chloropropanoyl)-2-(4-phenoxyphenyl)-5,6,7,8-tetrahydro-4H-pyrazolo[5′,1′:2,3]imidazo[4,5-c]pyridine-3-carboxamide]: 7.7 nM.
The same measure for `NC(=O)c1c(-c2ccc(Oc3ccccc3)cc2)nn2c1[nH]c(=O)c1ccc(N)cc12` [Compound 79, 8-Amino-5-oxo-2-(4-phenoxyphenyl)-4,5-dihydropyrazolo[1,5-a]quinazoline-3-carboxamide]: 50 nM; for `CCCC#CC(=O)N1CCC([C@@H]2CCNc3c(C(N)=O)c(-c4ccc(Oc5ccccc5)cc4)nn32)CC1` [Compound 193, (S)-7-(1-(Hex-2-ynoyl)piperidin-4-yl)-2-(4-phenoxyphenyl)-4,5,6,7-tetrahydropyrazolo[1,5-a]pyrimidine-3-carboxamide]: 3.9 nM; for `CN(C)C/C=C/C(=O)N1CCc2c([nH]c3c(C(N)=O)c(-c4ccc(Oc5ccccc5)cc4)nn23)C1` [Compound 64, (E)-6-(4-(Dimethylamino)but-2-enoyl)-2-(4-phenoxyphenyl)-5,6,7,8-tetrahydro-4H-pyrazolo[1′,5′:1,2]imidazo[4,5-c]pyridine-3-carboxamide trifluoroacetate]: 0.17 nM.
To `C=CC(=O)Nc1ccccc1C1CCNc2c(C(N)=O)c(-c3cccc(OC)c3)nn21` (centres unmarked) [Compound 166, 7-(2-Acrylamidophenyl)-2-(3-methoxyphenyl)-4,5,6,7-tetrahydropyrazolo[1,5-a]pyrimidine-3-carboxamide] belongs 2.7 nM; to `C=CC(=O)N1CC(C2CCNc3c(C(N)=O)c(-c4ccc(Oc5ccccc5)c(OC)c4)nn32)C1` (centres unmarked) [Compound 140, 7-(1-acryloylazetidin-3-yl)-2-(3-methoxy-4-phenoxyphenyl)-4,5,6,7-tetrahydropyrazolo[1,5-a]pyrimidine-3-carboxamide formate], 3000 nM; to `NC(=O)c1c(-c2ccc(Oc3ccccc3)cc2)nn2c1NCCC2c1cc(N)ccc1Cl` (centres unmarked) [Compound 95, 7-(5-amino-2-chlorophenyl)-2-(4-phenoxyphenyl)-4,5,6,7-tetrahydropyrazolo[1,5-a]pyrimidine-3-carboxamide], 470 nM.
On to `C=CC(=O)N1CC(C2CCNc3c(C(N)=O)c(-c4ccc(Oc5ccccc5)c(Cl)c4)nn32)C1` (centres unmarked) [Compound 139, 7-(1-acryloylazetidin-3-yl)-2-(3-chloro-4-phenoxyphenyl)-4,5,6,7-tetrahydropyrazolo[1,5-a]pyrimidine-3-carboxamide], for which the IC50 was 0.44 nM.
